One may read the EC50 as the concentration that produces a half-maximal response.

Bounds are passed on as bounds.

Chain of REV-ERBα LBD (P20393 with tags, fused parts or gaps DEL324-422): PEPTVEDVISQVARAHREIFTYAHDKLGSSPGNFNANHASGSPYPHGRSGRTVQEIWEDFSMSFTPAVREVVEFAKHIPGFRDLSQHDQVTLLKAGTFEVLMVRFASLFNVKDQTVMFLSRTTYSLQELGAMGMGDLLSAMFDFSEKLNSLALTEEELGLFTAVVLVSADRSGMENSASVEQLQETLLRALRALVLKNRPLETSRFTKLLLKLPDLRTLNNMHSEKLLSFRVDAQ
Chain of REV-ERBα LBD (Q9Y618 2335-2356 partner limits assumed): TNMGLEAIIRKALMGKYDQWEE

The assay has as its target REV-ERBα LBD (Homo sapiens, UniProt P20393, DEL324-422). The assay can be described thus: biochemical. As to conditions: FRET assay; 6xHistag-REV-ERBα LBD with FITC-labeled SMRT corepressor peptide; read-out: REVERBα (Agonism of REV-ERBα, EC50). The procedure, abridged:
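Serially diluted ligands were incubated 2 h at 4° C, in triplicate, with E. coli-expressed His-REV-ERBα LBD (281-614 Δ324-422 or 381-579; 4 nM), Tb-anti-His (1 nM) and FITC-labelled SMRT peptide (400 nM). EC50 came from sigmoidal fits of the 520/495 nm TR-FRET ratio.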
As to `CC(C)(C)Cn1cc([C@H](NS(=O)(=O)C2CC2)C(F)F)c2ccc(-c3c(F)cccc3C(F)F)cc21` [Compound 104, (S)—N-(1-(6-(2-(difluoromethyl)-6-fluorophenyl)-1-neopentyl-1H-indol-3-yl)-2,2-difluoroethyl)cyclopropanesulfonamide], the EC50 is under 100 nM. Turning to `CC(C)(C)Cn1cc([C@H](NS(=O)(=O)C2CC2)C(F)F)c2ccc(-c3ccc(F)cc3C(F)F)cc21` [Compound 105, (S)—N-(1-(6-(2-(difluoromethyl)-4-fluorophenyl)-1-neopentyl-1H-indol-3-yl)-2,2-difluoroethyl)cyclopropanesulfonamide], the EC50 is under 100 nM.

On to `CC(C)(C)Cn1cc([C@H](NS(=O)(=O)C2CC2)C(F)F)c2ccc(-c3c(C(F)(F)F)ccc[n+]3[O-])cc21` [Compound 106, (S)-2-(3-(1-(cyclopropanesulfonamido)-2,2-difluoroethyl)-1-neopentyl-1H-indol-6-yl)-3-(trifluoromethyl)pyridine 1-oxide], for which the EC50 is 100 to 1000 nM. As for `CC(C)(C)Cn1cc([C@H](NS(=O)(=O)C2CC2)C(F)F)c2ccc(-c3c[n+]([O-])ccc3C(F)(F)F)cc21` [Compound 107, (S)-3-(3-(1-(cyclopropanesulfonamido)-2,2-difluoroethyl)-1-neopentyl-1H-indol-6-yl)-4-(trifluoromethyl)pyridine 1-oxide], the half-maximal effective concentration (EC50) is under 100 nM. Under `CC(C)(C)Cn1cc([C@H](NS(=O)(=O)C2CC2)C(F)F)c2cc(F)c(-c3c(C#N)cccc3C(F)(F)F)cc21` [Compound 108, N-((1S)-1-(6-(2-cyano-6-(trifluoromethyl)phenyl)-5-fluoro-1-neopentyl-1H-indol-3-yl)-2,2-difluoroethyl)cyclopropanesulfonamide] stands under 100 nM. As to `CC(C)(C)Cn1cc([C@H](NS(=O)(=O)C2CC2)C(F)F)c2cc(F)c(-c3c(C#N)cccc3C(F)F)cc21` [Compound 109, N-((1S)-1-(6-(2-cyano-6-(difluoromethyl)phenyl)-5-fluoro-1-neopentyl-1H-indol-3-yl)-2,2-difluoroethyl)cyclopropanesulfonamide], the EC50 is under 100 nM.

Turning to `CC(C)(C)Cn1cc([C@H](NS(=O)(=O)C2CC2)C(F)F)c2cc(F)c(-c3ccc(C#N)nc3C(F)(F)F)cc21` [Compound 110, (S)—N-(1-(6-(6-cyano-2-(trifluoromethyl)pyridin-3-yl)-5-fluoro-1-neopentyl-1H-indol-3-yl)-2,2-difluoroethyl)cyclopropanesulfonamide], the half-maximal effective concentration (EC50) is under 100 nM. On to `CC(C)(C)Cn1cc([C@H](NS(=O)(=O)C2CC2)C(F)F)c2cc(F)c(-c3ncccc3C(F)F)cc21` [Compound 111, (S)—N-(1-(6-(3-(difluoromethyl)pyridin-2-yl)-5-fluoro-1-neopentyl-1H-indol-3-yl)-2,2-difluoroethyl)cyclopropanesulfonamide], for which the EC50 is under 100 nM. In the case of `CC(C)(C)Cn1cc([C@H](NS(=O)(=O)C2CC2)C(F)F)c2cc(F)c(-c3cncnc3C(F)(F)F)cc21` [Compound 112, (S)—N-(2,2-difluoro-1-(5-fluoro-1-neopentyl-6-(4-(trifluoromethyl)pyrimidin-5-yl)-1H-indol-3-yl)ethyl)cyclopropanesulfonamide], the concentration for a half-maximal effect (EC50) is under 100 nM. Regarding `CC(C)(C)Cn1cc([C@H](NS(=O)(=O)C2CC2)C(F)F)c2cc(F)c(-c3cnccc3C(F)(F)F)cc21` [Compound 113, (S)—N-(2,2-difluoro-1-(5-fluoro-1-neopentyl-6-(4-(trifluoromethyl)pyridin-3-yl)-1H-indol-3-yl)ethyl)cyclopropanesulfonamide], the EC50 was under 100 nM.

Consider `CC(C)(C)Cn1cc([C@H](NS(=O)(=O)C2CC2)C(F)F)c2cc(F)c(-c3ccncc3C(F)(F)F)cc21` [Compound 114, (S)—N-(2,2-difluoro-1-(5-fluoro-1-neopentyl-6-(3-(trifluoromethyl)pyridin-4-yl)-1H-indol-3-yl)ethyl)cyclopropanesulfonamide], for which the EC50 was under 100 nM. As to `CC(C)(C)Cn1cc([C@H](NS(=O)(=O)C2CC2)C(F)F)c2cc(F)c(-c3ncccc3C3CC3)cc21` [Compound 115, (S)—N-(1-(6-(3-cyclopropylpyridin-2-yl)-5-fluoro-1-neopentyl-1H-indol-3-yl)-2,2-difluoroethyl)cyclopropanesulfonamide], the concentration for a half-maximal effect (EC50) was under 100 nM. On to `CC(C)(C)Cn1cc([C@H](NS(=O)(=O)C2CC2)C(F)F)c2cc(F)c(-c3c(F)cccc3C(F)F)cc21` [Compound 116, N-((1S)-1-(6-(2-(difluoromethyl)-6-fluorophenyl)-5-fluoro-1-neopentyl-1H-indol-3-yl)-2,2-difluoroethyl)cyclopropanesulfonamide], for which the EC50 is under 100 nM. With `CC(C)(C)Cn1cc([C@H](NS(=O)(=O)C2CC2)C(F)F)c2cc(F)c(-c3ccc(F)cc3C(F)F)cc21` [Compound 117, (S)—N-(1-(6-(2-(difluoromethyl)-4-fluorophenyl)-5-fluoro-1-neopentyl-1H-indol-3-yl)-2,2-difluoroethyl)cyclopropanesulfonamide], the concentration giving a half-maximal response (EC50) was under 100 nM.

For the molecule `CC(C)(C)Cn1cc([C@H](NS(=O)(=O)C2CC2)C(F)F)c2ccc(-c3c(C(F)F)ccnc3C#N)cc21` [Compound 118, (S)—N-(1-(6-(2-cyano-4-(difluoromethyl)pyridin-3-yl)-1-neopentyl-1H-indol-3-yl)-2,2-difluoroethyl)cyclopropanesulfonamide], the EC50 is under 100 nM.

On to `CC(C)(C)Cn1cc([C@H](NS(=O)(=O)C2CC2)C(F)F)c2ccc(-c3cc(F)cnc3C(F)F)cc21` [Compound 119, (S)—N-(1-(6-(2-(difluoromethyl)-5-fluoropyridin-3-yl)-1-neopentyl-1H-indol-3-yl)-2,2-difluoroethyl)cyclopropanesulfonamide], for which the EC50 is under 100 nM. Regarding `Cc1ncnc(C(F)F)c1-c1ccc2c([C@H](NS(=O)(=O)C3CC3)C(F)F)cn(CC(C)(C)C)c2c1` [Compound 120, (S)—N-(1-(6-(4-(difluoromethyl)-6-methylpyrimidin-5-yl)-1-neopentyl-1H-indol-3-yl)-2,2-difluoroethyl)cyclopropanesulfonamide], the EC50 was under 100 nM.

For `CC(C)(C)Cn1cc([C@H](NS(=O)(=O)C2CC2)C(F)F)c2cc(F)c(-c3c(C(F)F)ccnc3C#N)cc21` [Compound 122, N-((1S)-1-(6-(2-cyano-4-(difluoromethyl)pyridin-3-yl)-5-fluoro-1-neopentyl-1H-indol-3-yl)-2,2-difluoroethyl)cyclopropanesulfonamide], the concentration for a half-maximal effect (EC50) was under 100 nM. For the molecule `CC(C)(C)Cn1cc([C@H](NS(=O)(=O)C2CC2)C(F)F)c2cc(F)c(-c3cc(F)cnc3C(F)F)cc21` [Compound 123, (S)—N-(1-(6-(2-(difluoromethyl)-5-fluoropyridin-3-yl)-5-fluoro-1-neopentyl-1H-indol-3-yl)-2,2-difluoroethyl)cyclopropanesulfonamide], the EC50 was under 100 nM. In the case of `Cn1ncc(C(F)F)c1-c1cc2c(cc1F)c([C@H](NS(=O)(=O)C1CC1)C(F)F)cn2CC(C)(C)C` [Compound 125, (S)—N-(1-(6-(4-(difluoromethyl)-1-methyl-1H-pyrazol-5-yl)-5-fluoro-1-neopentyl-1H-indol-3-yl)-2,2-difluoroethyl)cyclopropanesulfonamide], the EC50 is under 100 nM. `Cc1ccnc(C(F)F)c1-c1cc2c(cc1F)c([C@H](NS(=O)(=O)C1CC1)C(F)F)cn2CC(C)(C)C` [Compound 127, N-((1S)-1-(6-(2-(difluoromethyl)-4-methylpyridin-3-yl)-5-fluoro-1-neopentyl-1H-indol-3-yl)-2,2-difluoroethyl)cyclopropanesulfonamide]: the EC50 is under 100 nM. As to `Cc1ccnc(C(F)F)c1-c1ccc2c([C@H](NS(=O)(=O)C3CC3)C(F)F)cn(CC(C)(C)C)c2c1` [Compound 128, (S)—N-(1-(6-(2-(difluoromethyl)-4-methylpyridin-3-yl)-1-neopentyl-1H-indol-3-yl)-2,2-difluoroethyl)cyclopropanesulfonamide], the EC50 is under 100 nM. In the case of `Cc1ccnc(C(F)(F)F)c1-c1cc2c(cc1F)c([C@H](NS(=O)(=O)C1CC1)C(F)F)cn2CC(C)(C)C` [Compound 129, N-((1S)-2,2-difluoro-1-(5-fluoro-6-(4-methyl-2-(trifluoromethyl)pyridin-3-yl)-1-neopentyl-1H-indol-3-yl)ethyl)cyclopropanesulfonamide], the EC50 was under 100 nM.

As for `Cc1nccc(C(F)(F)F)c1-c1cc2c(cc1F)c([C@H](NS(=O)(=O)C1CC1)C(F)F)cn2CC(C)(C)C` [Compound 130, N-((1S)-2,2-difluoro-1-(5-fluoro-6-(2-methyl-4-(trifluoromethyl)pyridin-3-yl)-1-neopentyl-1H-indol-3-yl)ethyl)cyclopropanesulfonamide], the half-maximal effective concentration (EC50) was under 100 nM.

Consider `CC(C)(C)Cn1cc([C@H](NS(=O)(=O)C2CC2)C(F)F)c2cc(F)c(-c3c(F)ccnc3C(F)(F)F)cc21` [Compound 131, N-((1S)-2,2-difluoro-1-(5-fluoro-6-(4-fluoro-2-(trifluoromethyl)pyridin-3-yl)-1-neopentyl-1H-indol-3-yl)ethyl)cyclopropanesulfonamide], for which the EC50 was under 100 nM. Consider `CC(C)(C)Cn1cc([C@H](NS(=O)(=O)C2CC2)C(F)F)c2cc(F)c(-c3cc(F)cnc3C(F)(F)F)cc21` [Compound 132, (S)—N-(2,2-difluoro-1-(5-fluoro-6-(5-fluoro-2-(trifluoromethyl)pyridin-3-yl)-1-neopentyl-1H-indol-3-yl)ethyl)cyclopropanesulfonamide], for which the EC50 was under 100 nM. On to `CC(C)(C)Cn1cc([C@H](NS(=O)(=O)C2CC2)C(F)F)c2cc(F)c(-c3cnc(C#N)cc3C(F)(F)F)cc21` [Compound 133, (S)—N-(1-(6-(6-cyano-4-(trifluoromethyl)pyridin-3-yl)-5-fluoro-1-neopentyl-1H-indol-3-yl)-2,2-difluoroethyl)cyclopropanesulfonamide], for which the EC50 was under 100 nM.

(Values after US20260285846A1, “REV-ERB AGONISTS FOR TH17-MEDIATED INFLAMMATORY DISORDERS” (UNIVERSITY OF FLORID RESEARCH FOUNDATION, iNCORPORATED, priority 2021, published 2026).)
